The source of these data is US20120135923A1, “Use of Melanocortins to Treat Dyslipidemia” (IPSEN PHARMA, S.A.S., priority 2009, published 2012).

Molecules are shown by their SMILES. “Also recorded” adds a separate entry of the source. Where two headings read alike, the source gives them in different places. Bridge positions count the residues as written; N and C are the ends. Square brackets hold non-standard residues; d marks the D form. Peptide text beside a SMILES is read from it. 1Nal = N[C@@H](Cc1cccc2ccccc12)C(=O)O; d2Nal = N[C@H](Cc1ccc2ccccc2c1)C(=O)O; hArg = N=C(N)NCCCC[C@H](N)C(=O)O; Nle = CCCC[C@H](N)C(=O)O; βAla = NCCC(=O)O

Experiment [1] has as its target T1, hMC5-R (Homo sapiens, UniProt P33032).
T1 construct: expressed in transfected cells; host or cells: CHO-K1
The experiment in a line: cyclic AMP bioassay (ECL) in CHO-K1 cells. In kind it is cell-based.

The target of experiment [2] is T1, hMC5-R. As to the kind of experiment: Radioligand binding assay, [125I]-NDP-α-MSH competition, CHO-K1 membranes. Particulars: Table 5.
Experiment [3] deals with obese Zucker rats. As to the kind of experiment: Body weight and food intake, 7 day sc infusion. In kind it is in vivo, rat. Particulars: for decrease in body weight gain: day 7, vs vehicle; for decrease in food intake: end of 7 day treatment. On the procedure: (§1) The dosage forms were prepared prior to the start of the experiment and used to fill the pumps under sterile conditions. Pumps were primed overnight at 37° C. in sterile saline and implanted on the starting day of the experiment.
The Zucker rats are obese due to a spontaneous mutation in the […].
(§2) Three groups of eight obese male Zucker rats (350-400 g) were housed in individual cages and maintained under 12:12 hour light:dark conditions with both food (Harlan Teklad Sterilized Rodent Diet LM-485) and water available ad libitum.
(§3) On the morning of day 1, the rats were anesthetized using chlorohydrate anesthetic and implanted with a sub-cutaneous infusion pump (Alzet® 2002) just under the skin. […] Individual body weight and food and water consumption were measured daily at 0800 hours for 7 days.

The subject of experiment [4] is obese Zucker rats. The experiment in a line: Intravenous glucose tolerance test after 7 day sc infusion. It counts as in vivo, rat. The method, then: as §1, §2, §3
(§4) On day 7 a right atrial cannula was implanted in the jugular vein under cholorohydrate anesthesia. The animals were fasted overnight and an intravenous (iv) glucose tolerance test was performed. Glucose (1 g/kg) was injected at time 0 and blood samples were taken via the cannula at 0, 2.5, 5, 10, 20 and 40 minutes post-injection. Plasma was collected and assayed for glucose (Glucose (Trinder) Assay; Diagnostic Chemicals Limited, Charlottetown, P.E.I., Canada; Cat #220-32) and insulin (Mercodia Rat Insulin ELISA; Mercodia, Uppsala, Sweden; ALPCO 10-1124-10) content. At the conclusion of the glucose tolerance test and additional serum samples were collected and assayed for triglycerides (Triglyceride L-Type TG H kit: Wako Diagnostics, Richmond, Va.), cholesterol (Cholesterol E assay kit: Wako Diagnostics, Richmond, Va.) and free fatty acids (Fatty Acid HR series NEFA-HR2 kit: Wako Diagnostics, Richmond, Va.).

Experiment [5] deals with obese Zucker rats. The experiment in a line: Serum triglycerides, cholesterol and free fatty acids after 7 day sc infusion. In kind it is in vivo, rat. Particulars: 50 and 500 nmole/kg/day sc infusion. The method, then: as §1, §2, §3, §4
The target of experiment [6] is T2, hMC3-R (Homo sapiens, UniProt P41968).
T2 construct: expressed in transfected cells; host or cells: CHO-K1
T2 sequence (P41968 whole entry): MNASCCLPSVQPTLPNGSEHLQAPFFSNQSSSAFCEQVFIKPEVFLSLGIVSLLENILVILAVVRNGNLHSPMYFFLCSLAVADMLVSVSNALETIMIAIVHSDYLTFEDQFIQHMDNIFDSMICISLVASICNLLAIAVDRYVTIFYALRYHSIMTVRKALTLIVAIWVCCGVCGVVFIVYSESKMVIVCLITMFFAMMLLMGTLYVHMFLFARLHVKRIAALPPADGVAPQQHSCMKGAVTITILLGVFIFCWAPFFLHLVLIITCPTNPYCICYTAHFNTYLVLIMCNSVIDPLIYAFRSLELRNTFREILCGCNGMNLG
The experiment in a line: cyclic AMP bioassay (ECL) in CHO-K1 cells. In kind it is cell-based.

For experiment [7], the target named is T3, hMC1-R (Homo sapiens, UniProt Q01726).
T3 construct: expressed in transfected cells; host or cells: CHO-K1
T3 sequence (Q01726 whole entry): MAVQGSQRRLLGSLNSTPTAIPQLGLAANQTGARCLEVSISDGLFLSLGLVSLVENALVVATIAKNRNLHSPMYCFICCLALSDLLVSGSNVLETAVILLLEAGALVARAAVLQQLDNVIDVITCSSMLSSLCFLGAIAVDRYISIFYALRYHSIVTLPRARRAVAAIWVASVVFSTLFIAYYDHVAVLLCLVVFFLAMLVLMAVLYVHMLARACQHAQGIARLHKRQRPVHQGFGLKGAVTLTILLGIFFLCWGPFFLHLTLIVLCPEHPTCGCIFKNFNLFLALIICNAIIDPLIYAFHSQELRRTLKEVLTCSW
As to the kind of experiment: Radioligand binding assay, [125I]-NDP-α-MSH competition, CHO-K1 membranes. Particulars: Table 5; read-out: Ki hMC1-R.

Experiment [8] addresses T4, hMC4-R (Homo sapiens, UniProt P32245).
T4 construct: expressed in transfected cells; host or cells: CHO-K1
Described as above. Particulars: Table 5; read-out: Ki KMC4-R.

In experiment [9] the target is T2, hMC3-R. Described as above. Particulars: Table 5; read-out: Ki hMC3-R.
For experiment [10], the target named is T3, hMC1-R. As to the kind of experiment: cyclic AMP bioassay (ECL) in CHO-K1 cells. In kind it is cell-based. Particulars: read-out: EC50 hMC1-R.
Experiment [11] concerns the target T4, hMC4-R. As to the kind of experiment: cyclic AMP bioassay (ECL) in CHO-K1 cells. In kind it is cell-based.
Description: Intracellular cyclic AMP (cAMP) levels were determined by an electrochemiluminescence (ECL) assay (Meso Scale Discovery®, Gaithersburg, Md.; referred to hereinafter as MSD). […] Transgenic CHO-K1 cells stably expressing hMC receptor subtypes 1, 3, 4 or 5 were dispensed at a density of approximately 7,000 cells/well in 384-well Multi-Array®plates (MSD) containing integrated carbon electrodes and coated with anti-cAMP antibody. Increasing concentrations of the test compounds were added and the cells were incubated for approximately 40 minutes at approximately 37° C. […] At the end of the second incubation period read buffer (Tris-buffered solution containing an ECL co-reactant and Triton X-100 at ph 7.8) was added and the cAMP levels in the cell lysates were immediately determined by ECL detection with a Sector Imager 6000 Reader® (MSD). Data were analyzed using a computer-assisted non-linear regression analysis (XL fit; IDBS) and reported as either an EC50 value or a Kb value.
The Kb value reflects the potency of an antagonist and is determined by Schild analysis. In brief, concentration-response curves of an agonist are carried out in the presence of increasing concentrations of an antagonist. […] It is calculated by extrapolating the line on a Schild plot to zero on the y-axis.

T4 sequence (P32245 whole entry): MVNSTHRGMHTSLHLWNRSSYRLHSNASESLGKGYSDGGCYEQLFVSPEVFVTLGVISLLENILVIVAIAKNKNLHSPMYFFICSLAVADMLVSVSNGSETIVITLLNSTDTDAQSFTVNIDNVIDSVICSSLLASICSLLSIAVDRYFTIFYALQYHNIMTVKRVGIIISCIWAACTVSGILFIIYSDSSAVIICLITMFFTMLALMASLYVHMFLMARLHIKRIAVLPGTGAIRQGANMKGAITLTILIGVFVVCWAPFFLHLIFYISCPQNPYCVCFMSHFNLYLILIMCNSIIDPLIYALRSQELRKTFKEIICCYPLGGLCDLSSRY
T1 sequence (P33032 whole entry): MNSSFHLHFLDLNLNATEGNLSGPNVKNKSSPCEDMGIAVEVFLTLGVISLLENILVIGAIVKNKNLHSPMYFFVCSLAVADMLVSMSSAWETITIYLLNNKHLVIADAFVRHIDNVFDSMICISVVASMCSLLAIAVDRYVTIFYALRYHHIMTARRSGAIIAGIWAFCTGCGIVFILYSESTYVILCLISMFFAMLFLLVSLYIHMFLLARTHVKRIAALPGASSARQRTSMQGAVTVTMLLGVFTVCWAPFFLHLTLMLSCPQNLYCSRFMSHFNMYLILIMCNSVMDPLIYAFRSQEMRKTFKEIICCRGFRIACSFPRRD

As to `CC(=O)N[C@@H](CCCNC(=N)N)C(=O)N[C@H]1CSSC[C@@H](C(N)=O)NC(=O)[C@H](Cc2c[nH]c3ccccc23)NC(=O)[C@H](CCCNC(=N)N)NC(=O)[C@@H](Cc2ccccc2)NC(=O)[C@H](Cc2c[nH]cn2)NC(=O)[C@@H](C)NC1=O` [Compound A, Ac-Arg-c(Cys-D-Ala-His-D-Phe-Arg-Trp-Cys)-NH2], it took 1630 nM to reach a half-maximal effect on hMC5-R [1] (EC50). Further, the Ki (in general, a dissociation constant, usually derived from enzyme kinetics or from competition with a known ligand) at hMC5-R [2] (Ki hMC5-R) was 430 nM. Moreover, in the experiment on obese Zucker rats [3] (50 nmole/kg/day sc infusion), the “decrease in body weight gain” value was 35 g and the “decrease in food intake” value is 60 g. For the same molecule, in the experiment with obese Zucker rats [3] (500 nmole/kg/day sc infusion), the “decrease in body weight gain” value was 60 g and the “decrease in food intake” value came out at 100 g. In addition, the “basal fasted plasma glucose” value in the experiment on obese Zucker rats [4] (500 nmole/kg/day sc infusion, fasted overnight) is listed as “decreased”. The “plasma glucose levels after a glucose challenge” value in the experiment with obese Zucker rats [4] (50 and 500 nmole/kg/day, glucose 1 g/kg iv) is listed as “decreased”. The “amount of insulin required to clear the glucose challenge” value in the experiment with obese Zucker rats [4] (7 day infusion, glucose tolerance test) is reported as “decreased”. In the experiment on obese Zucker rats [5], the serum cholesterol result is “Dose-related decrease”, the “serum free fatty acids” value is “dose-related decreases; also recorded: Decrease” and the serum triglycerides entry was “Dose-related decrease”.
In the case of `CCOc1ccc(C[C@H]2NC(=O)[C@H](Cc3c[nH]cn3)NC(=O)[C@@H](NC(=O)[C@H](N)Cc3ccccc3)CSSC[C@H](C(=O)N[C@H](C(N)=O)[C@@H](C)O)NC(=O)CCNC(=O)[C@H](Cc3c[nH]c4ccccc34)NC(=O)[C@H](CCCCNC(=N)N)NC2=O)cc1` [D-Phe-c(Cys-His-D-(Et)Tyr-hArg-Trp-β-Ala-D-Cys)-Thr-NH2] (H-[dF]CH[dY](Et)[hArg]W[βAla][dC]T-NH2; disulfide 2-8), the EC50 (in general, the concentration at which the effect is half-maximal) at hMC5-R [1] (Table 9A/9B, read-out: EC50 hMC5-R) came out at 2.38 nM; on hMC3-R [6] (Table 9A/9B, read-out: EC50 hMC3-R), 2.71 nM; at hMC1-R [10] (Table 9A/9B), 0.345 nM; on hMC4-R [11] (Table 9A/9B, read-out: EC50 hMC4-R) it was 5.38 nM. The Ki on hMC1-R [7] was 0.0567 nM; on hMC4-R [8], 14.7 nM; on hMC5-R [2] (read-out: Ki hMC5-R) it was 9.27 nM; on hMC3-R [9], 31.4 nM.
On to `CCCC[C@H](NC(C)=O)C(=O)N[C@H]1CSSC[C@@H](C(N)=O)NC(=O)[C@H](Cc2cccc3ccccc23)NC(=O)[C@H](CCCNC(=N)N)NC(=O)[C@@H](Cc2ccc3ccccc3c2)NC(=O)[C@H](Cc2c[nH]cn2)NC(=O)[C@@H](C)NC1=O` [Ac-Nle-c(Cys-D-Ala-His-D-2-Nal-Arg-1-Nal-Cys)-NH2] (Ac-[Nle]C[dA]H[d2Nal]R[1Nal]C-NH2; disulfide 2-8), for which the EC50 at hMC5-R [1] (Table 9C/9D, read-out: EC50 hMC5-R) turned out to be 2840 nM; at hMC1-R [10] (Table 9C/9D), 383 nM. In addition, the Kb (usually the equilibrium dissociation constant of an antagonist, usually derived from a functional assay) was 61.5 nM on hMC3-R [6] (Table 9C/9D, antagonist potency by Schild analysis, read-out: Kb hMC3-R) and 53.6 nM at hMC4-R [11] (Table 9C/9D, antagonist potency by Schild analysis, read-out: Kb MC4-R). Besides, the Ki was 114 nM on hMC1-R [7], 3.07 nM at hMC4-R [8], 1660 nM on hMC5-R [2] (read-out: Ki hMC5-R) and 63.9 nM on hMC3-R [9].
